In article PMC9866706 (Toxins, 2022):
Entries after “also recorded” stand apart in the source; their conditions may differ. Bridges are numbered along the chain shown (N, C = ends). Where no end group is shown, it is not given here.

Experiments:
[1] = system: neuronal tetrodotoxin-sensitive voltage-gated sodium channel of adult rat dorsal root ganglion neurons; conditions: cited from earlier work
[2] = system: tetrodotoxin-resistant voltage-gated sodium channel; conditions: cited from earlier work
[3] = system: TRPA1; parameters: method as in earlier work; conditions: ref doi.org/10.1016/j.cub.2014.01.013; doi.org/10.1016/j.toxicon.2006.09.014; cited from earlier work
[4] = system: Nav1.5; parameters: method as in earlier work; conditions: ref doi.org/10.1016/j.cub.2014.01.013; doi.org/10.1016/j.toxicon.2006.09.014; cited from earlier work
[5] = system: Nav1.2; parameters: method as in earlier work; conditions: ref doi.org/10.1016/j.cub.2014.01.013; doi.org/10.1016/j.toxicon.2006.09.014; cited from earlier work
[6] = system: Nav1.7; parameters: method as in earlier work; conditions: ref doi.org/10.1016/j.cub.2014.01.013; doi.org/10.1016/j.toxicon.2006.09.014; cited from earlier work
[7] = system: Nav1.8; parameters: method as in earlier work; conditions: ref doi.org/10.1016/j.cub.2014.01.013; doi.org/10.1016/j.toxicon.2006.09.014; cited from earlier work
[8] = system: TRPC1; parameters: method as in doi.org/10.1016/j.toxicon.2006.09.030; conditions: ref doi.org/10.1016/j.toxicon.2006.09.030; cited from earlier work
[9] = target: T1, rα2β2 nAChR (Rattus norvegicus, UniProt P12389+P12390); assay: ACh-evoked currents in Xenopus oocytes (TEVC), rα2β2; assay type: cell-based
T1 construct: expressed in transfected cells; host or cells: Xenopus laevis oocytes injected with cRNA

[10] = target: T2, rα2β4 nAChR (Rattus norvegicus, UniProt P12389+P12392); assay: ACh-evoked currents in Xenopus oocytes (TEVC), rα2β4; assay type: cell-based
T2 construct: expressed in transfected cells; host or cells: Xenopus laevis oocytes injected with cRNA

[11] = target: T3, rα9α10 nAChR (Rattus norvegicus, UniProt P43144+Q9JLB5); assay: ACh-evoked currents in Xenopus oocytes (TEVC), rα9α10; assay type: cell-based
T3 construct: expressed in transfected cells; host or cells: Xenopus laevis oocytes injected with cRNA
T3 sequence (Q9JLB5 25-447): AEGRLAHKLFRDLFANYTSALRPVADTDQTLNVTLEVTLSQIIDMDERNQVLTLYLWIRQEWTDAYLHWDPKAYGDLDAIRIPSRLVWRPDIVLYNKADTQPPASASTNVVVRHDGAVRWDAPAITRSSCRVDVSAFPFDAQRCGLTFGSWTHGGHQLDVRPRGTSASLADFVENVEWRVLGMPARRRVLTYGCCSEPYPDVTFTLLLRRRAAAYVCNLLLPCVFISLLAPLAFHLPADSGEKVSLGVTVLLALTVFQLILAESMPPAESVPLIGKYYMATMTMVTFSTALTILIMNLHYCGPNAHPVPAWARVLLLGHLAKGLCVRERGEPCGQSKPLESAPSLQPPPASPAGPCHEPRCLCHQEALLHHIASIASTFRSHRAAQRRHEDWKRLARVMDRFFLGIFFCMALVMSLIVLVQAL
T3 sequence (P43144 26-479): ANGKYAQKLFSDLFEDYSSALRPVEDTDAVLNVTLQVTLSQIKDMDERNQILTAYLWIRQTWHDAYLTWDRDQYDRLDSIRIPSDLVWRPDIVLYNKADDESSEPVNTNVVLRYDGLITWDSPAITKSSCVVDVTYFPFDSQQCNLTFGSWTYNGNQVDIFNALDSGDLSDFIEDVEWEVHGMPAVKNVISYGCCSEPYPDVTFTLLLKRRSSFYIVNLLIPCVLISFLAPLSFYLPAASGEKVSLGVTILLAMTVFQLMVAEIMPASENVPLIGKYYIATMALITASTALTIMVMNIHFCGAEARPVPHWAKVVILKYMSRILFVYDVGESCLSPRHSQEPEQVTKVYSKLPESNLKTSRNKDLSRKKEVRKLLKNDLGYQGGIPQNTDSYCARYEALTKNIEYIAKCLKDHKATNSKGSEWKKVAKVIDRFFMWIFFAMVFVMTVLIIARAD

[12] = target: T4, rα6/α3β4 nAChR (Rattus norvegicus, UniProt P04757+P12392+P43143); assay: ACh-evoked currents in Xenopus oocytes (TEVC), rα6/α3β4; assay type: cell-based
T4 construct: expressed in transfected cells; host or cells: Xenopus laevis oocytes injected with cRNA

[13] = target: T5, rα3β2 nAChR (Rattus norvegicus, UniProt P04757+P12390); assay: ACh-evoked currents in Xenopus oocytes (TEVC), rα3β2; assay type: cell-based
T5 construct: expressed in transfected cells; host or cells: Xenopus laevis oocytes injected with cRNA

[14] = target: T6, rα7 nAChR (Rattus norvegicus, UniProt Q05941); assay: ACh-evoked currents in Xenopus oocytes (TEVC), rα7; assay type: cell-based
T6 construct: expressed in transfected cells; host or cells: Xenopus laevis oocytes injected with cRNA
T6 sequence (Q05941 23-502): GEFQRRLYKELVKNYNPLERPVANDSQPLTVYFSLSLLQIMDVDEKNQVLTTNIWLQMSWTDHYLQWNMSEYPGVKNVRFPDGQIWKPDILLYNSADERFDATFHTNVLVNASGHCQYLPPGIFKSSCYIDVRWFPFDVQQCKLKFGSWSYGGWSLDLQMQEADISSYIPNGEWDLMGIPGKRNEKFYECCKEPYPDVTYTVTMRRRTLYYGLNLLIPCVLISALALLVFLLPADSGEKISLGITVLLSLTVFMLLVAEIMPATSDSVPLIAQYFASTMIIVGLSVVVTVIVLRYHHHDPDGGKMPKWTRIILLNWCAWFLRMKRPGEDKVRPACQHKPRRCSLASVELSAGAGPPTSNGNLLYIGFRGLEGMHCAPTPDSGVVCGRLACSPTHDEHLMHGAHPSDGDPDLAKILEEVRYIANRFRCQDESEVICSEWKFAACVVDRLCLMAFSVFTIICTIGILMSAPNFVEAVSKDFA

[15] = target: T7, rα4β2 nAChR (Rattus norvegicus, UniProt P09483+P12390); assay: ACh-evoked currents in Xenopus oocytes (TEVC), rα4β2; assay type: cell-based
T7 construct: expressed in transfected cells; host or cells: Xenopus laevis oocytes injected with cRNA

[16] = target: T8, rα4β4 nAChR (Rattus norvegicus, UniProt P09483+P12392); assay: ACh-evoked currents in Xenopus oocytes (TEVC), rα4β4; assay type: cell-based
T8 construct: expressed in transfected cells; host or cells: Xenopus laevis oocytes injected with cRNA

[17] = target: T9, mα1β1δε nAChR (Mus musculus, UniProt P02716+P04756+P09690+P20782); assay: ACh-evoked currents in Xenopus oocytes (TEVC), mα1β1δε; assay type: cell-based
T9 construct: expressed in transfected cells; host or cells: Xenopus laevis oocytes injected with cRNA
T9 sequence (P20782 21-493): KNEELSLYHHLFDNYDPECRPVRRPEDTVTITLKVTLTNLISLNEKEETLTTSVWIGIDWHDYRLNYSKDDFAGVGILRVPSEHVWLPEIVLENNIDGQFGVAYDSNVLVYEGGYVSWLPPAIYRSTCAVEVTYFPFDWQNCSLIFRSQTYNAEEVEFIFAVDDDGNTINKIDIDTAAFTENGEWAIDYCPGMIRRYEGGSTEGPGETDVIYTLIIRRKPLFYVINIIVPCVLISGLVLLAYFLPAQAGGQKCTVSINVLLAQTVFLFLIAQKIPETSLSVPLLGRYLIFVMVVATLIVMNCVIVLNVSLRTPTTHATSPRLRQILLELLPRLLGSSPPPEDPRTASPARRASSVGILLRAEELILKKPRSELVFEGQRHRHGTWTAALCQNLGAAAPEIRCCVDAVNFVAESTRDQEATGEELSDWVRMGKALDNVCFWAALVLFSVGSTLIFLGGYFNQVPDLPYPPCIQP
T9 sequence (P04756 21-457): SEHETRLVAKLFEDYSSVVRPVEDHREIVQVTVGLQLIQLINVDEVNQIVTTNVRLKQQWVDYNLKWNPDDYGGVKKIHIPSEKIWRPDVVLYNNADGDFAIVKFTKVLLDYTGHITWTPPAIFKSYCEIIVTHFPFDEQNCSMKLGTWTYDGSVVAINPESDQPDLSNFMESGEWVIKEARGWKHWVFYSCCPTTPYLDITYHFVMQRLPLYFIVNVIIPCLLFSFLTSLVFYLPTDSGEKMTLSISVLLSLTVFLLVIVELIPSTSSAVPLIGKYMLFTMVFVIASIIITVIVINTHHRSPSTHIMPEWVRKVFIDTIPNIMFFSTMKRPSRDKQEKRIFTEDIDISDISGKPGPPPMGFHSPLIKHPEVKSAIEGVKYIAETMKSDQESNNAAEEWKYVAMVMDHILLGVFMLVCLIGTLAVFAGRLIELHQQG
T9 sequence (P09690 24-501): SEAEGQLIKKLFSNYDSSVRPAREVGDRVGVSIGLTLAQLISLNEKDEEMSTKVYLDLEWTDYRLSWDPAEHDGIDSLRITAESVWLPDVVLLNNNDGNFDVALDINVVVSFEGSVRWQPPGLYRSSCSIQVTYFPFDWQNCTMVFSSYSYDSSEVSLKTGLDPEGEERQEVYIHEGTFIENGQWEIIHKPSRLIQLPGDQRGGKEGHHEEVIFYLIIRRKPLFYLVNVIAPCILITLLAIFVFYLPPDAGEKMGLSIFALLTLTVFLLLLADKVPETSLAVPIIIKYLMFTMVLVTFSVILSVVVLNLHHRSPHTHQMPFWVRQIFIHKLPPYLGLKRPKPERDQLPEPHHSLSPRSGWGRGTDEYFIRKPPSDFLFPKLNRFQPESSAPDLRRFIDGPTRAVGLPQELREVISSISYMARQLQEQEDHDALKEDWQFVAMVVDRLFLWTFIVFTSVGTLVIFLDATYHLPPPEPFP
T9 sequence (P02716 25-520): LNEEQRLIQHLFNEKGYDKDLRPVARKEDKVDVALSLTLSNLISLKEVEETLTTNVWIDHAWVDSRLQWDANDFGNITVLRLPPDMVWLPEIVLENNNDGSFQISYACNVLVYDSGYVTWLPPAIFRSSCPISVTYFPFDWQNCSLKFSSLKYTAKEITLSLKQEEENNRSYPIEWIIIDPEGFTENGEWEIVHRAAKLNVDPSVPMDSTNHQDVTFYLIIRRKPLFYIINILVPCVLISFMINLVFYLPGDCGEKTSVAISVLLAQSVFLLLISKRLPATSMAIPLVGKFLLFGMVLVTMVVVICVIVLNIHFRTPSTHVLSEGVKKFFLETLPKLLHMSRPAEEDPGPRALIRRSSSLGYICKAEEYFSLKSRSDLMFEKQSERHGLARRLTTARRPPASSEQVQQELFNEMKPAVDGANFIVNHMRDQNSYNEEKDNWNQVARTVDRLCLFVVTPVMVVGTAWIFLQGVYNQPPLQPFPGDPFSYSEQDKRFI

[18] = target: T10, hα7 nAChR (Homo sapiens, UniProt P36544); assay: ACh-evoked currents in Xenopus oocytes (TEVC), hα7; assay type: cell-based
T10 construct: expressed in transfected cells; host or cells: Xenopus laevis oocytes injected with cRNA
T10 sequence (P36544 23-502): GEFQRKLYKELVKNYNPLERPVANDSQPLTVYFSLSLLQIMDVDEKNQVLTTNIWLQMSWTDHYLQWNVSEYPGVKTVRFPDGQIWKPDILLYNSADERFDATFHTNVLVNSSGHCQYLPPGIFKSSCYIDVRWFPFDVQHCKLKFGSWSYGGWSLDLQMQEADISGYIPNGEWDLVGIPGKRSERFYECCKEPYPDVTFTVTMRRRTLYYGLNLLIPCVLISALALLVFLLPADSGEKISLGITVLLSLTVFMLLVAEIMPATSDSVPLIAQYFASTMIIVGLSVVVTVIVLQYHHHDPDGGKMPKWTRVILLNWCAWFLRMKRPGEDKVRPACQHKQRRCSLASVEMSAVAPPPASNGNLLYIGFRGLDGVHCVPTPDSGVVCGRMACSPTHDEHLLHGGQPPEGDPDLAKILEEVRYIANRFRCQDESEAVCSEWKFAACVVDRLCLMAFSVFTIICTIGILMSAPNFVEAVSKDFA

[19] = target: T11, rα3β4 nAChR (Rattus norvegicus, UniProt P04757+P12392); assay: ACh-evoked currents in Xenopus oocytes (TEVC), rα3β4; assay type: cell-based
T11 construct: expressed in transfected cells; host or cells: Xenopus laevis oocytes injected with cRNA
T11 sequence (P04757 26-499): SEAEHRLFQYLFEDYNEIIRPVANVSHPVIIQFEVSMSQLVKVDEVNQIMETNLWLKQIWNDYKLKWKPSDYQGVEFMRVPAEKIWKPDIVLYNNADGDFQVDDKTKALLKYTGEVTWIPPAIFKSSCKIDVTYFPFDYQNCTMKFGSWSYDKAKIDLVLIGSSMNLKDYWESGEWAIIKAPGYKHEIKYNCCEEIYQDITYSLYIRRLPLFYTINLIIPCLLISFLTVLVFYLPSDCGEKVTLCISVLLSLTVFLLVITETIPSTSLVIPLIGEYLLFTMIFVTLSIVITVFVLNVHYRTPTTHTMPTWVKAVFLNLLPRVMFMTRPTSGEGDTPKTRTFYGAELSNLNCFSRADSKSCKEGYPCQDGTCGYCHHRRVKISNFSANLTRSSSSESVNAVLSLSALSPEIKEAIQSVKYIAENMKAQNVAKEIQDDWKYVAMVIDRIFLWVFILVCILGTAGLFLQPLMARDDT
T11 sequence (P12392 21-495): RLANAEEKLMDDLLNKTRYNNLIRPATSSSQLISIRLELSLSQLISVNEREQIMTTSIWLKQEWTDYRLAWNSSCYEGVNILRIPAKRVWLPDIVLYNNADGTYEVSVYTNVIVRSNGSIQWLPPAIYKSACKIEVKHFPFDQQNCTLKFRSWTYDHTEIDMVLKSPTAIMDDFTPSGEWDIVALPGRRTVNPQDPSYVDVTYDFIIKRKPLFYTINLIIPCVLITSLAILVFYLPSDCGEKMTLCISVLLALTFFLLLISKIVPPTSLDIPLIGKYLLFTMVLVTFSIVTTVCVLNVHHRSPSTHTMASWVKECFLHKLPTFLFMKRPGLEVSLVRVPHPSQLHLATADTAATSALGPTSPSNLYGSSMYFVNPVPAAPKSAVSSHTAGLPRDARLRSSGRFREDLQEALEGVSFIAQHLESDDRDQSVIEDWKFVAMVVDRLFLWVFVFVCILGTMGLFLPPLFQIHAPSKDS

[20] = system: KVAP; parameters: method as in doi.org/10.1038/nature01473; conditions: ref doi.org/10.1038/nature01473; cited from earlier work

HWTX-IV: Haplopelma schmidti toxin, PDB 1MB6
IC50 [1]: 0.03 µM | No (or weak) effect [2]: No (or weak) effect

ProTx-I
IC50 [3]: 0.389 ± 0.077 µM | Target (that was in the corresponding Ref.) [4]: Nav1.5 | Target (that was in the corresponding Ref.) [5]: Nav1.2 | Target (that was in the corresponding Ref.) [6]: Nav1.7 | Target (that was in the corresponding Ref.) [7]: Nav1.8

GsMTx-4
Target (that was in the corresponding Ref.) [8]: TRPC1

GCKKLNSYCTRQHRECCHGLVCRRPDYGIGRGILWKCTRARK (disulfide 2-17, 9-22, 16-37) [Ms11a-3]
IC50 [9]: > 10 µM | IC50 [10]: > 10 µM | IC50 [11]: 0.202 µM | functional antagonism ([11]; compared to the muscle and α7 receptors): highest antagonism; also recorded: effectively blocking the neuronal α9α10 and to a lesser extent muscle nAChR subtypes | Hill Slope ([11]; mean (95% confidence interval)): 0.71 (0.52–0.90) | IC50 [12]: > 10 µM | IC50 [13]: > 10 µM | IC50 [14]: 4.79 µM | Hill Slope ([14]; mean (95% confidence interval)): 0.99 (0.59–1.40) | functional potency ([14]; towards α7 and heteromeric nAChRs): lowest potency | IC50 [15]: > 10 µM | IC50 [16]: > 10 µM | IC50 [17]: 1.21 µM | Hill Slope ([17]; mean (95% confidence interval)): 1.35 (0.71–1.99) | IC50 [18]: 8.87 µM | Hill Slope ([18]; mean (95% confidence interval)): 0.95 (0.30–1.61) | IC50 [19]: 5.17 µM | Hill Slope ([19]; mean (95% confidence interval)): 0.84 (0.67–1.00)

VSTx1: Grammostola rosea toxin, PDB 2N1N (ECGKFMWKCKNSNDCCKDLVCSSRWKWCVLASPF; UniProt P60980 30-63, looked up)
Target (that was in the corresponding Ref.) [20]: KVAP
